Results published in patent US20220002307A1, “FGFR4 INHIBITOR AND USE THEREOF” (BETTA PHARMACEUTICALS CO., LTD, priority 2018, published 2022).

Tests used:
FGFR1 = FGFR1 (Homo sapiens, UniProt P11362); experiment: Kinase assay (mobility shift assay), FGFR1; type: biochemical; details: compound and enzyme incubated for 60 mins
Procedure: [The source words this procedure for another target and reports this target under the same test.] (§1) The effect of the compounds of the present invention on the activity of tyrosine kinase FGFR4 was evaluated with in vitro kinase detection experiment. The mobility shift assay was used in the experiment, and a fluorescently labeled polypeptide was used as the substrate, the substrate was transformed into a product under the action of the enzyme in the reaction system, and its charge has also changed accordingly. This method can use the difference between the charge of the substrate and the product to separate them, and then detect them separately.
(§2) DMSO solution of compound (300 μM) was diluted to a 100-fold final concentration of DMSO solution in a 384-well plate, 3-fold dilution, 250 nL of the compound with 100-fold final concentration was transferred to the target plate OptiPlate-384F by a dispenser Echo 550. The final concentration of the compound were 3000 nM, 1000 nM, 333.3 nM, 111.1 nM, 37.04 nM, 12.35 nM, 4.115 nM, 1.372 nM, 0.4572 nM, 0.1524 nM, the compound and the enzyme were incubated for 60 mins,
(§3) Prepared 1× kinase buffer, used the 1× kinase buffer to prepare 2.5 fold final concentration of kinase solution, 10 μL of 2.5 fold final concentration kinase solution was added to the compound well and the positive control well respectively, and 10 μL of 1× kinase buffer was added to the negative control well. After centrifugation, the reaction plate was shaken and mixed and incubated at room temperature for 60 mins, a mixture of 25/15 fold final concentration of adenosine triphosphate (ATP) and kinase substrate 22 was prepared with 1× kinase buffer. 15 μL of 25/15 fold final concentration of ATP and substrate mixed solution was added to start the reaction, 384-well plate was centrifuged, mixed, and then incubated at room temperature for 30 minutes, 30 μL of the stop detection solution was added to stop the kinase reaction, and the conversion rate was readed with Caliper EZ Reader after centrifugation and mixing;
(§4) wherein: Conversion %_sample was the conversion rate of the sample; Conversion %_min was the average value of the negative control well, which represent the conversion rate of the well without enzyme activity, Conversion %_max was the average value of the positive control well, which represent the conversion rate of the well without compound inhibition.
(§5) Take the log value of the concentration as the X axis, the percentage inhibition rate as the Y axis, and use GraphPad Prism's log(inhibitor) vs. response-Variable slope (four parameters) of the analysis software to fit the dose-response curve to obtain the IC50 value of each compound on the enzyme. The formula is as follows: Y=Bottom+(Top−Bottom)/(1+10^((Log IC50−X)*HillSlope)).

tyrosine kinase FGFR4 = tyrosine kinase FGFR4 (Homo sapiens, UniProt P22455); experiment: Kinase assay (mobility shift assay), FGFR4; type: biochemical; details: compound and enzyme incubated for 60 mins
Sequence of tyrosine kinase FGFR4 (P22455 22-802): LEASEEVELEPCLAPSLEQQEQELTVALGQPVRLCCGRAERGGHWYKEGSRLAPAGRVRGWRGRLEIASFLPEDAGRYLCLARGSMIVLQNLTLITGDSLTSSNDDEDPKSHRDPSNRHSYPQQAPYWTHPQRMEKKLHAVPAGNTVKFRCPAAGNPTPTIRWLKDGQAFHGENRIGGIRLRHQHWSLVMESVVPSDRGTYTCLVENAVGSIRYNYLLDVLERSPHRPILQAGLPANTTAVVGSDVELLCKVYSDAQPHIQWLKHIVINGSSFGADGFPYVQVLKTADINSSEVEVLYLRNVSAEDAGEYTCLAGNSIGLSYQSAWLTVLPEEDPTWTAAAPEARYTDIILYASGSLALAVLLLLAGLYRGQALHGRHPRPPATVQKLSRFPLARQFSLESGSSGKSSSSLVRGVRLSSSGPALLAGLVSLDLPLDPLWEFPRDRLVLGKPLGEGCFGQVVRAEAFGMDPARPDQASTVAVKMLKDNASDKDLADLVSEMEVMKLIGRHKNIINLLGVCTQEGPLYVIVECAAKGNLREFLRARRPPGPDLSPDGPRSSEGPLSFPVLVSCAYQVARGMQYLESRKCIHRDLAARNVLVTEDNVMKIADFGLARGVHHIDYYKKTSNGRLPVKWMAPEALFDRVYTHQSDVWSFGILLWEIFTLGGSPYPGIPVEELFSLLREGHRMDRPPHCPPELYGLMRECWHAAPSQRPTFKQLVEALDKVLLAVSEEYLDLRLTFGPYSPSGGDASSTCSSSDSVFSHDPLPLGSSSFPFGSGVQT
Procedure: as §1, §2, §3, §4, §5

[1] = test system: human liver cancer cells Hep3B cells; experiment: Cell proliferation assay (CellTiter-Glo); type: cell-based; details: 96 hrs incubation, CTG detection, read-out: IC50(nM) of the compound on Hep3B cells
Source text: In vitro cell assay was used to measure the effects of the compound of the present invention on the proliferation of human liver cancer cells Hep3B cells. The CELL TITER-GLO (CTG) luminescent was used as detection method in the assay, which can detect the number of living cells by quantitatively determining ATP. Because ATP participates in a variety of enzymatic reactions in organisms, it is an indicator of the metabolism of living cells, and its content directly reflects the number and cell state of cells, during the experiment, add CellTiter-Glo™ reagent to the cell culture medium to measure the luminescence, the luminescence value is directly proportional to the amount of ATP, and ATP is positively related to the number of living cells, so cell viability can be inspected by detecting the ATP content.
Take a bottle of Hep3B cells in logarithmic growth phase, the cells were counted after digestion and resuspension, and then were adjusted the cell density and seeded at 180 μL per well (1500 cells/well) into a 96-well plate, the plate was incubated for 24 hrs in 37° C. 5% CO2 incubator;
The 600 μM test substance dissolved in DMSO was diluted with DMSO in a 1:3 ratio to a 200-fold final concentration solution, then the cell culture medium was diluted 20 fold (10×), and 20 μL of the compound solution was added to the 96 wells containing cells in the plate, the final concentration of the compound from high to low was 3000 nM, 1000 nM, 333.3 nM, 111.1 nM, 37.04 nM, 12.35 nM, 4.115 nM, 1.372 nM, 0.4572 nM, and the well plate was placed in a 37° C. 5% CO2 incubator for 96 hrs;
After 96 hrs of incubation, 60 μL of CellTiter-Glo® Luminescent Cell Viability Assay solution was added to each well, gently shaked for 2 mins, continued incubating for 10 mins at room temperature, and the luminescence value of each well on the multifunctional microplate reader was readed.
Calculated the inhibition rate base on the luminous value,
Inhibition rate %=(blank group value−administration group value)/(blank group value−apoptosis group value)*100
The log value of the concentration was used as the X axis, and the percentage inhibition rate was used as the Y axis. Log (inhibitor) vs. response-Variable slope (four parameters) of GraphPad Prism's was used to fit the dose-response curve, and the IC50 of the compound to inhibit cell proliferation was calculated.

[2] = test system: human hepatocarcinoma cells Hep3B; experiment: Xenograft tumor model; type: in vivo; details: for inhibitory rate on tumor volume growth of Hep3B (TGI): BID×14; for inhibitory rate of tumor weight growth (TGI): BID×14, tumor weight after the last dose; for body weight (routine determination of toxicity): during the entire experiment, at the treatment doses
Procedure: BALB/c nu/nu female mice were inoculated subcutaneously in the right anterior scapula of 5×10^6 human hepatocarcinoma cells Hep3B, and the volume ratio of cell suspension to matrigel was 1:1 (0.2/mL/mouse). The mice were grouped according to tumor size until the average tumor volume was 158 mm^3. The treatment group was given a test compound solution prepared with an appropriate solvent, and the solvent control group was given a blank solvent. During the treatment, the tumor volume was measured twice a week, and the tumor weight was measured after the last dose to determine the compound activity. The tumor growth inhibition rate (%, TGI) was calculated by comparing the tumor volume and weight of the treatment group and the solvent control group. Body weight measurement, as a routine determination of toxicity, has the same frequency as the tumor volume measurement.

Sequence of FGFR1 (P11362 22-822): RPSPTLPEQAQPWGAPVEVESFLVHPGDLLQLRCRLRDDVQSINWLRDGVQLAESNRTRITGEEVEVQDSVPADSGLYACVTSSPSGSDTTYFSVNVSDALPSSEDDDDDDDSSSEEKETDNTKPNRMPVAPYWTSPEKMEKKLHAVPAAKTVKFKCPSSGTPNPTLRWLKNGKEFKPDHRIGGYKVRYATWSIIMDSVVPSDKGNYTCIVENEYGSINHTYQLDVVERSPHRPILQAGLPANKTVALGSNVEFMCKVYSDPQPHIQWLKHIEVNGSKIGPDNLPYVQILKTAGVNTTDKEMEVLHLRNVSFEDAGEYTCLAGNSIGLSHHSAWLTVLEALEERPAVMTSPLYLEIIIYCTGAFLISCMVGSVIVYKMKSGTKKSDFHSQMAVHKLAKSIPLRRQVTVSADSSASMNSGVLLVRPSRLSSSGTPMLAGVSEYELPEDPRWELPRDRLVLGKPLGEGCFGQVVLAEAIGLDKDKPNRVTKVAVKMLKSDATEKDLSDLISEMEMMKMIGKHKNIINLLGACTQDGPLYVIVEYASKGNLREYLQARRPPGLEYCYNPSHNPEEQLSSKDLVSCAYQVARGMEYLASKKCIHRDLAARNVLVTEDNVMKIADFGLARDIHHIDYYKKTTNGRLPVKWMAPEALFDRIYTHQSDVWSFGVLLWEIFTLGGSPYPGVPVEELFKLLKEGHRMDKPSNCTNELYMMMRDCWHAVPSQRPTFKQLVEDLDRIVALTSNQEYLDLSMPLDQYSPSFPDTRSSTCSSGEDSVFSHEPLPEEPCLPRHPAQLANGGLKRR

IC50 (FGFR1) | IC50 (tyrosine kinase FGFR4) | IC50 [1] | SMILES | further results
912 nM | 10 nM | – | C=CC(=O)N[C@H]1CCOC[C@H]1Nc1ncc2c(n1)-c1cccnc1N(c1c(Cl)c(OC)cc(OC)c1Cl)C2 [Compound 2, N-((3S,4S)-3-((6-(2,6-dichloro-3,5-dimethoxyphenyl)-5,6-dihydropyrimido[5,4-c][1,8]naphthyridin-2-yl)amino)tetrahydro-2H-pyran-4-yl)acrylamide] | –
1480 nM | 13 nM | 62.7 nM | C=CC(=O)N[C@H]1CCOC[C@H]1Nc1ncc2cc(-c3c(Cl)c(OC)cc(OC)c3Cl)ccc2n1 [BLU554, reference compound] | –
– | – | 524 nM | C=CC(=O)N[C@H]1CCOC[C@H]1Nc1ncc2cc(-c3c(Cl)c(OC)cc(OC)c3Cl)c3nncn3c2n1 [Compound 33, N-((3S,4S)-3-((6-(2,6-dichloro-3,5-dimethoxyphenyl)-[1,2,4]triazolo[4′,3′:1,6]pyrido[2,3-d]pyrimidin-2-yl)amino)tetrahydro-2H-pyran-4-yl)acrylamide] | –
– | – | 1030 nM | C=CC(=O)NC1CCOCC1Nc1ncc2c(=O)n(-c3c(Cl)c(OC)cc(OC)c3Cl)c3ncc(Cl)cc3c2n1 (stereo not shown) [Compound 34, N-(3-((9-chloro-6-(2,6-dichloro-3,5-dimethoxyphenyl)-5-oxo-5,6-dihydropyrimido[5,4-c][1,8]naphthyridin-2-yl)amino)tetrahydro-2H-pyran-4-yl)acrylamide] | –
– | 9.4 nM | 6.9 nM | C=CC(=O)Nc1cc(N2CCC(N3CCOCC3)CC2)ccc1Nc1ncc2c(n1)-c1cccnc1N(c1c(Cl)c(OC)cc(OC)c1Cl)C2 [Compound 1, N-(2-((6-(2,6-dichloro-3,5-dimethoxyphenyl)-5,6-dihydropyrimido[5,4-c][1,8]naphthyridin-2-yl)amino)-5-(4-morpholinopiperidin-1-yl)phenyl)acrylamide] | –
1530 nM | 1.8 nM | 10.6 nM | C=CC(=O)N[C@H]1CCOC[C@H]1Nc1ncc2c(n1)-c1cc(F)cnc1N(c1c(Cl)c(OC)cc(OC)c1Cl)C2 [Compound 11, N-((3S,4S)-3-((6-(2,6-dichloro-3,5-dimethoxyphenyl)-9-fluoro-5,6-dihydropyrimido[5,4-c][1,8]naphthyridin-2-yl)amino)tetrahydro-2H-pyran-4-yl)acrylamide] | –
– | – | > 3000 nM | C=CC(=O)N[C@H]1CCOC[C@H]1Nc1ncc2c(=O)n(-c3c(Cl)c(OC)cc(OC)c3Cl)c3ncccc3c2n1 [Compound 3, N-((3S,4S)-3-((6-(2,6-dichloro-3,5-dimethoxyphenyl)-5-oxo-5,6-dihydropyrimido[5,4-c][1,8]naphthyridin-2-yl)amino)tetrahydro-2H-pyran-4-yl)acrylamide] | –
741 nM | 1.8 nM | 9.9 nM | C=CC(=O)N[C@H]1CCOC[C@H]1Nc1ncc2c(n1)-c1cc(Cl)cnc1N(c1c(Cl)c(OC)cc(OC)c1Cl)C2 [Compound 28, N-((3S,4S)-3-((9-chloro-6-(2,6-dichloro-3,5-dimethoxyphenyl)-5,6-dihydropyrimido[5,4-c][1,8]naphthyridin-2-yl)amino)tetrahydro-2H-pyran-4-yl)acrylamide] | –
1440 nM | 2.6 nM | 18.7 nM | C=CC(=O)N[C@H]1CCOC[C@H]1Nc1ncc2c(n1)-c1cc(C)cnc1N(c1cc(OC)cc(OC)c1Cl)C2 [Compound 14, N-((3S,4S)-3-((6-(2-chloro-3,5-dimethoxyphenyl)-9-methyl-5,6-dihydropyrimido[5,4-c][1,8]naphthyridin-2-yl)amino)tetrahydro-2H-pyran-4-yl)acrylamide] | –
1000 nM | 5.2 nM | – | C=CC(=O)N[C@H]1CCOC[C@H]1Nc1ncc2c(n1)-c1ccc(C)nc1N(c1c(Cl)c(OC)cc(OC)c1Cl)C2 [Compound 15, N-((3S,4S)-3-((6-(2,6-dichloro-3,5-dimethoxyphenyl)-8-methyl-5,6-dihydropyrimido[5,4-c][1,8]naphthyridin-2-yl)amino)tetrahydro-2H-pyran-4-yl)acrylamide] | –

SMILES | IC50 (FGFR1) | IC50 (tyrosine kinase FGFR4) | IC50 [1] | further results
C=CC(=O)N[C@H]1CCOC[C@H]1Nc1ncc2c(n1)-c1cc(C)cnc1N(c1c(Cl)c(OC)cc(OC)c1Cl)C2 [Compound 13, N-((3S,4S)-3-((6-(2,6-dichloro-3,5-dimethoxyphenyl)-9-methyl-5,6-dihydropyrimido[5,4-c][1,8]naphthyridin-2-yl)amino)tetrahydro-2H-pyran-4-yl)acrylamide] | 367 nM | 1 nM | 5.1 nM | inhibitory rate on tumor volume growth of Hep3B (TGI) ([2]; 50 mg/kg): 73.02%; inhibitory rate of tumor weight growth (TGI) ([2]; 50 mg/kg): 84.76%; inhibitory rate on tumor volume growth of Hep3B (TGI) ([2]; 100 mg/kg): 86.26%; inhibitory rate of tumor weight growth (TGI) ([2]; 100 mg/kg): 92.27%; inhibitory rate on tumor volume growth of Hep3B (TGI) ([2]; 200 mg/kg): 90.26%; inhibitory rate of tumor weight growth (TGI) ([2]; 200 mg/kg): 98.15%; body weight (routine determination of toxicity) [2]: did not show obvious weight losses
C=CC(=O)N[C@H]1CCOC[C@H]1Nc1ncc2c(n1)-c1cc(C(F)(F)F)cnc1N(c1c(Cl)c(OC)cc(OC)c1Cl)C2 [Compound 16, N-((3S,4S)-3-((6-(2,6-dichloro-3,5-dimethoxyphenyl)-9-(trifluoromethyl)-5,6-dihydropyrimido[5,4-c][1,8]naphthyridin-2-yl)amino)tetrahydro-2H-pyran-4-yl)acrylamide] | 166 nM | 3.6 nM | 14.5 nM | inhibitory rate on tumor volume growth of Hep3B (TGI) ([2]; 50 mg/kg): 78.37%; inhibitory rate of tumor weight growth (TGI) ([2]; 50 mg/kg): 83.85%; body weight (routine determination of toxicity) [2]: did not show obvious weight losses
